According to patent publication EP0087858A1, “New chromanone compounds and pharmaceutical compositions containing them” (priority 1982, dated 1983):

Key:
[1] = Acute toxicity; settings: mouse, in vivo, male dd mice, deaths up to 72 hours
Experimental: Groups of 10 male dd mice weighing some 18 g were orally or intraperitoneally administered the examined drugs and the number of death up to 72 hours later was recorded.
An example of results is shown in Table 1: the drugs are those numbered correspondingly above. Administration is oral (p.o.) or intraperitoneal (i.p.)

[2] = system: male dd mice; assay: Analgesic effects by acetic acid writhing test; assay type: in vivo; settings: inhibition rate of stretching after 0.6% acetic acid i.p.
Experimental: 30 minutes after the examined drugs were given orally, 0.1 ml/10 g of 0.6% acetic acid solution was intraperitoneally administered to groups of 10 male dd mice weighing some 18 g. The number of stretching was calculated during an observation period of 15 to 20 minutes after acetic acid treatment. The average inhibition rate of stretching among 8 animals was regarded as the inhibition rate of the drug, excluding 2 animals showing maximum and minimum number of stretching.

[3] = system: dd mice; assay: Analgesic effects by a modified Haffner method; assay type: in vivo; settings: 2 mg/kg morphine hydrochloride s.c. 30 minutes later, tail squeeze
Experimental: Groups of 10 dd mice were orally administered the examined drugs and 30 minutes later 2 mg/kg of morphine hydrochloride, the threshold dose, was injected subcutaneously. At 15, 30, 45 and 60 minutes thereafter, the root of mouse's tail was squeezed with a Kocher's forceps.

[4] = system: plantaroedema induced by carrageenin; assay: Inhibition of plantaroedema induced by carrageenin; assay type: in vivo; settings: rats, 60 minutes before 0.1 ml of 1% carrageenin into the sole
Experimental: 60 minutes after the drugs had been orally administered to groups of rats, 0.1 ml of 1% carrageenin solution was injected subcutaneously into the sole. The rate of increase in volume of the hind food compared with volume before carrageenin treatment was regarded as oedema rate.

[5] = system: gastric irritation/ulceration; assay: Gastric irritation; assay type: in vivo; settings: rats, 8 hours after dosing, aspirin (150 mg/kg) or indomethacin (40 mg/kg) taken as 100%
Experimental: 8 hours after the examined drugs were orally administered to groups of rats, degree of gastric irritation/ulceration produced by the drug is compared with that produced by aspirin (150 mg/kg) or indomethacin (40 mg/kg). Percentage rate of production of gastric irritation, compared with the control drug, (that produced by aspirin or indomethacin was taken as 100%), was regarded as the gastric irritation rate.

[6] = system: stomach and intestinal tracts; design: species or system rats; settings: rat, in vivo, po

Row | Structure (SMILES) | analgesic effect (%) ([2]; 50 mg/kg orally) | analgesic effect (%) ([2]; 100 mg/kg orally) | analgesic effect (%) ([3]; 50 mg/kg orally) | analgesic effect (%) ([3]; 100 mg/kg orally) | oedema rate (%) ([4]; 50 mg/kg orally) | oedema rate (%) ([4]; 100 mg/kg orally) | mortality at 72 h ([1]; po, 400 mg/kg p.o.) | other results
1 | Cc1c(N(C)C)c(=O)n(-c2ccccc2)n1C [Aminopyrine, reference compound] | 17% | 57% | 20% | 35% | – | – | – | mortality at 72 h ([1]; po, 600 mg/kg p.o.): 20%
2 | CC(C(=O)O)c1ccc2c(c1)C(=O)CC(C)(C)O2 (stereo not drawn) [Compound 4, 2-(2,2-dimethyl-4-chromanon-6-yl)propionic acid] | – | – | – | – | 48% | – | – | mortality at 72 h ([1]; ip, 200 mg/kg i.p.): 0%; mortality at 72 h ([1]; po, 300 mg/kg p.o.): 0%; gastric irritation rate(%) ([5]; 50 mg/kg orally): 8%
3 | CC(C)Cc1ccc(C(C)C(=O)O)cc1 (stereo not drawn) [Ibuprofen, reference compound] | – | – | – | – | – | 54% | – | –
4 | O=C(O)Cc1ccc2c(c1)C(=O)CCO2 [Compound 1, (4-chromanon-6-yl) acetic acid] | 31% | 45% | 15% | 30% | – | – | – | –
5 | CC(C(=O)O)c1cc(Cl)c2c(c1)C(=O)CC(C)(C)O2 (stereo not drawn) [Compound 3, 2-(8-chloro-2,2-dimethyl-4-chromanon-6-yl)propionic acid] | 27% | 59% | 20% | 25% | – | 48% | 0% | –
6 | CC1(C)CC(=O)c2cc(CC(=O)O)ccc2O1 [Compound 2, (2,2-dimethyl-4-chromanon-6-yl) acetic acid] | 13% | 62% | – | – | – | 46% | – | mortality at 72 h ([1]; po, 600 mg/kg p.o.): 0%
7 | CC(C(=O)O)c1cc(Cl)c2c(c1)C(=O)CCO2 (stereo not drawn) [Compound 5, 2-(8-chloro-4-chromanon-6-yl)propionic acid] | – | – | 20% | 45% | – | – | 0% | mortality at 72 h ([1]; po, 800 mg/kg p.o.): 0%
8 | CC(C(=O)O)c1ccc2c(c1)C(=O)C(C)(C)O2 (stereo not drawn) [Compound 6, 2-(2,2-dimethyl-2,3-dihydrobenzofuran-3-one-5-yl)propionic acid] | – | – | 20% | 40% | 34% | 53% | – | mortality at 72 h ([1]; ip, 200 mg/kg i.p.): 0%; mortality at 72 h ([1]; po, 300 mg/kg p.o.): 0%; gastric irritation rate(%) ([5]; 100 mg/kg orally): 25%
9 | CCCCC1C(=O)N(c2ccccc2)N(c2ccccc2)C1=O [Phenylbutazone, reference compound] | – | – | – | – | 33% | 50% | 30% | findings in sections of the stomach and intestinal tracts [6]: mucosal disorder or ulcer formation
